Results from publication PMC12469161, “Anti-cancer compound screening identifies Aurora Kinase A inhibition as a means to favor CRISPR/Cas9 gene correction over knock-out” (PLOS One, 2025).

Columns and labels:
[1] = tested on: AURKB; parameters: method as in manufacturer; conditions: ref manufacturer; cited from earlier work
[2] = tested on: eGFP locus in Hepa 1–6-eGFP cells (HDR vs NHEJ); test: CRISPR gene-editing outcome (eGFP to BFP, flow cytometry) with ProDeliverIN CRISPR; format: cell-based, murine; conditions: for dosage with overall high efficacy and manageable toxicity: Hepa 1–6-eGFP
From the text: Lipid nanoparticles (LNP) carrying SpCas9, sgRNA and HDR template DNA were formulated using the components and molecular ratios described previously. 1,1′-((2-(4-(2-((2-(bis(2-hydroxydodecyl)amino)ethyl)(2-hydroxydodecyl)amino)ethyl)piperazin-1-yl)ethyl)azanediyl)bis(dodecan-2-ol) (C12-200) was acquired from CordonPharma (Plankstadt, Germany) and used as the ionizable lipid in the formulation. 1,2-dioleoyl-sn-glycero-3-phosphoethanolamine (DOPE) was acquired from Lipoid GmbH (Steinhausen, Switzerland), Cholesterol and 1,2-dimyristoyl-rac-glycero-3-methoxypolyethylene glycol-2000 (PEG-DMG) were acquired from Sigma-Aldrich, and 1,2-dioleoyl-3-trimethylammonium-propane (DOTAP) was acquired from Merck (Darmstadt, Germany). LNP were produced using microfluidic mixing with the Dolomite Microfluidics system (Dolomite Microfluidics, Royston, United Kingdom) and herring-bone micromixer chip with hydrophilic coating (Dolomite Microfluidics, catalogue number 3200401). A total flow rate of 1.5 mL/min and flow rate ratio of 2:1 were used between an aqueous outer phase containing SpCas9, sgRNA and HDR template in nuclease free water, and the lipids in 100% ethanol in the inner phase, respectively. The resulting LNP were diluted 4 times in Dulbecco’s PBS (Sigma-Aldrich). In the experiments using the Hepa 1–6 eGFP cells, ProDeliverIN CRISPR (OZ Biosciences, San Diego, USA) was used as reported previously.
(§1) Compounds were assessed in three dosages to assess the effects on gene-editing efficacy. […] Cells were incubated with these compounds for 24 hours prior to LNP addition. LNP were added to all wells at a final concentration of 20 nM SpCas9 to achieve robust genome editing. After 24 hours of co-incubation, medium was refreshed and cells were transferred to a 48 well plate for further culturing. Six days after adding compounds, cells were processed for flow cytometric analysis of the gene knock-out and gene-correction efficiencies. Briefly, a ssDNA template was used carrying two nucleotide mutations to convert the eGFP sequence to that of a blue fluorescent protein (BFP), as well as mutating the PAM sequence to ensure robust HDR. The sgRNA spacer sequence was 5’-[…]-3’, and the HDR template sequence was 5’-[…]-3’.
Flow cytometry using the BD FACS Canto II (Becton Dickinson) was used to determine cells undergoing NHEJ (eGFP and BFP negative population) and HDR (eGFP negative, BFP positive). […]
(§2) The percentage of HDR relative to total gene editing in a given cell population (hereafter named Relative HDR (% of edited cells) was calculated by dividing the absolute HDR population by the sum of gene-edited cells found in the BFP+ and eGFP- gates. Absolute HDR (% of all cells) and Absolute NHEJ (% of all cells) were analyzed where appropriate. The gating strategy is given in S1 Fig in S1 File.

[3] = tested on: AURKA; parameters: method as in manufacturer; conditions: ref manufacturer; cited from earlier work
[4] = tested on: Hepa 1–6-eGFP cells; test: MTS cell viability and morphology, 5 days; format: cell-based, murine; conditions: for cell morphology by microscopy: 0.3 µM, after 5 days, vs untreated control
Description: (§3) A narrower cytotoxicity range was determined by exposing cells to 0.1–1 µM of the tested compounds. 48 hours after treatment started, cells were washed and harvested using medium and one third of the volume was transferred to a fresh 96 well plate, analogous to how cells are treated during gene editing experiments. Subsequently, cells were cultured for another 3–5 days. In the case of 5 days, one third of the cells was again transferred into a fresh 96-well plate on day 3 to allow enough space for logarithmic cell growth during the additional incubation time. Cell viability was determined by the Promega One Step MTS assay (Promega, Madison, USA) using the manufacturer’s specifications. Relative cell viability for the Hepa 1–6-eGFP cells was calculated by normalizing the compound conditions to controls treated with DMSO only or DMSO plus gene editing formulations. For the HEK293T cells, the absolute absorbance at […] was used as it was more representative of the relative cell viability between samples.
(§4) Cell morphology was assessed using the Nikon Eclipse Ti2 microscope (Nikon Europe, Amstelveen, The Netherlands). Pictures were acquired at 10x magnification with a Nikon DSLR 10 camera using the same imaging settings within each experiment set (Nikon Europe, Amstelveen, The Netherlands).

[5] = tested on: eGFP locus in HEK293T-eGFP cells (HDR vs NHEJ); test: CRISPR gene-editing outcome (eGFP to BFP conversion, flow cytometry) with CRISPR-Cas9 LNP; format: cell-based
Description: as §1
Flow cytometry using the BD FACS Canto II (Becton Dickinson) was used to determine cells undergoing NHEJ (eGFP and BFP negative population) and HDR (eGFP negative, BFP positive). Data analysis was performed using Flowlogic (version 8.7). Graphpad PRISM (version 9.3.1) was used for statistical analysis and preparing graphs.
as §2

[6] = tested on: PCSK9 locus in Hepa 1–6 cells; test: PCSK9 genome editing, Sanger sequencing and TIDER; format: cell-based, murine; conditions: TIDER, 0.3 µM
Description: Transfection mixtures were prepared to deliver 30 nM RNP (and where applicable 60 nM HDR template DNA) respectively using the commercial ProdeliverIN CRISPR kit. Following this, the cells were incubated for an additional 48h followed by cell lysis and DNA purification using the DNeasy Blood and Tissue kit (Qiagen, Venlo, The Netherlands) using the manufacturers protocol for cell line lysis. Subsequently, PCR was done using the primer set in S1 Table using the Phusion Hotstart Dna Polymerase (Thermo Fischer Scientific) and the recommended thermocycle conditions and PCR mix by the manufacturer. PCR products were purified using the GeneJET PCR Purification Kit (Thermo Fischer Scientific) and finally prepared for Sanger sequencing performed by Macrogen (Amsterdam, The Netherlands. Data was analyzed using the TIDER software package available at http://shinyapps.datacurators.nl/tider/ using an untreated sequencing plot as control chromatogram and a dsDNA gBlock (Integrated DNA Technologies) containing the desired mutation as reference chromatogram. Total gene editing and HDR were analyzed for S7 Figure.

[7] = tested on: HEK293T-eGFP cells; test: MTT cytotoxicity assay, 72 hours; format: cell-based; conditions: 72 h; HEK293T-eGFP cells, 3 days of incubation, MTT; read-out: IC50
Description: Cells were cultured for 16–24 hours under standard culturing conditions (5% CO2, 37 °C). […] All dose ranges were added in duplicate, followed by 72 hours of incubation. Cell viability was determined using a tetrazolium based metabolic activity assay. Briefly, 5 µL of 3-(4.5-dimethylthiazol-2-yl)-2,5-diphenyltetrazolium bromide (MTT) solution (5 mg/mL MTT in sterile PBS) was added per well, and the microplates were incubated for 4 hours at 37°C and 5% CO2 in a cell culture incubator. Next, 40 µL of 10% SDS/0.01 M HCl was added per well, and the microplates were incubated for 24–72 hours at 37°C and 5% CO2 in a cell culture incubator. Subsequently the absorbance at 570 nm and background absorbance at 720 nm were measured using the Spectramax i3x (Molecular Devices, San Jose, USA). Subsequently, the absorbance values at 720 nm were subtracted from the absorbance values at 570 nm, and the corresponding values were used to plot dose-response curves.
The data was normalized to the DMSO-treated cells (defined as 100% viability) and the empty controls (defined as 0% viability).

[8] = tested on: HEK293T-eGFP cells; test: MTT cytotoxicity assay, 72 hours; format: cell-based; conditions: 0.1 µM, MTT toxicity curve (S2 Fig), two days after treatment
[9] = tested on: HEK293T cells; test: MTS time-resolved cytotoxicity and morphology; format: cell-based
Description: as §3, §4

[10] = MTS cell viability and morphology, 5 days; format: cell-based, murine; conditions: mouse, Hepa 1–6-eGFP cells; 0.3 µM, MTS 5 days after start of treatment; read-out: relative cell viability
Description: as §3, §4

[11] = tested on: primary murine hepatocytes; test: MTT cytotoxicity on primary hepatocytes; format: cell-based, murine (Ai9 mice); conditions: for IC50: Mus musculus, Hepatocyte
Description: Primary murine hepatocytes were harvested from Ai9 mice and cultured in 2D prior to transfection as previously reported. […] Toxicity was measured at this timepoint, and 72 hours later,. Cell viability was calculated by subtracting a medium blank from the absorption, and dividing the absorption by that of a vehicle-only control.

## CC(=O)NCC(=O)N1[C@@H]2CC[C@H]1c1ccc(Nc3ncc(C(F)(F)F)c(NC4CCC4)n3)cc12 [PF-03814735]
[1]
  IC50: 0.5 nM
[2]
  dosage with overall high efficacy and manageable toxicity: 0.2 µM
[3]
  IC50: […]
[4]
  cell morphology by microscopy: did not change as drastically
[4]; Hepa 1–6-eGFP
  comparative cytotoxicity of the aurora kinase inhibitors: clearly more drastic toxicity

## COc1cc(Nc2ncc3c(n2)-c2ccc(Cl)cc2C(c2c(F)cccc2OC)=NC3)ccc1C(=O)O [Alisertib]
[5]; HEK293T, eGFP locus, sub-micromolar dosages
  increase in preferential gene correction over gene knock-out: over 4 fold
[5]; HEK293T-eGFP cells, narrow dose range
  lowest effective concentration for preferential HDR activation: 0.3 µM
[5]; narrowed dose range, triplicate, vs LNP only
  preferential activation of HDR over NHEJ in hit validation: strong dose-dependent preferential activation of HDR over NHEJ
[5]; validated hits, Fig 2B
  effect on the NHEJ and HDR outcomes: inhibited NHEJ and improved HDR
[6]
  HDR at the PCSK9 locus: measurable only when alisertib was present
[2]; Hepa 1–6, eGFP locus, sub-micromolar dosages
  increase in preferential gene correction over gene knock-out: over 4 fold
[2]
  dosage with overall high efficacy and manageable toxicity: 0.3 µM
[7]
  IC50: > 10 µM
[8]
  loss of cell viability: 20%
[9]; MTS, total incubation time varied (S5 Fig A)
  toxicity at different incubation times: did not vary significantly
[9]; after 2 days
  cell viability by MTS: not affected
[9]; after 5 days
  cell viability by MTS: dose-dependent decrease in cell viability
[9]; seven days after treatment started, at least 0.3 µM
  metabolic activity and confluency: very low metabolic activity and confluency
[4]
  cell morphology by microscopy: did not change as drastically
[10]
  viability at 5 days, 0.3 µM: 37%
[11]; 48h after exposure
  IC50: 32.7 µM
[11]; 120h after exposure (48h incubation)
  IC50: 54.8 µM
[11]; primary murine hepatocytes, both timepoints
  toxicity (order of): 30 to 50 µM
